Measured values as given in PubChem BioAssay (NCI).
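Abbreviation: GI50, concentration required for 50% inhibition of growth. At the TGI there is no net growth.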

Assays:
Test in all cases: NCI anticancer screen, dose series, 384-well format
UO-31 renal = system: UO-31 renal
MALME-3M melanoma = system: MALME-3M melanoma
SR leukemia = system: SR leukemia
SK-MEL-28 melanoma = system: SK-MEL-28 melanoma
NCI-H522 lung = system: NCI-H522 lung
DU-145 prostate = system: DU-145 prostate
KM12 colon = system: KM12 colon
CAKI-1 renal = system: CAKI-1 renal
K-562 leukemia = system: K-562 leukemia
TK-10 renal = system: TK-10 renal
HL-60(TB) leukemia = system: HL-60(TB) leukemia
NCI-H460 NSCLC = system: NCI-H460 NSCLC
SF-295 CNS = system: SF-295 CNS
PC-3 prostate = system: PC-3 prostate
UACC-257 melanoma = system: UACC-257 melanoma
COLO 205 colon = system: COLO 205 colon
A549 NSCLC = system: A549 NSCLC
IGROV1 ovarian = system: IGROV1 ovarian
NCI/ADR-RES ovarian = system: NCI/ADR-RES ovarian
MDA-MB-435 melanoma = system: MDA-MB-435 melanoma
OVCAR-5 ovarian = system: OVCAR-5 ovarian
HCT-15 colon = system: HCT-15 colon
MDA-MB-231 breast = system: MDA-MB-231 breast
CCRF-CEM leukemia = system: CCRF-CEM leukemia
SK-OV-3 ovarian = system: SK-OV-3 ovarian
SF-539 CNS = system: SF-539 CNS
UACC-62 melanoma = system: UACC-62 melanoma
RXF 393 renal = system: RXF 393 renal
BT-549 breast = system: BT-549 breast
ACHN renal = system: ACHN renal
NCI-H226 lung = system: NCI-H226 lung
OVCAR-4 ovarian = system: OVCAR-4 ovarian
LOX IMVI melanoma = system: LOX IMVI melanoma
NCI-H23 lung = system: NCI-H23 lung
U251 glioblastoma = system: U251 glioblastoma
A498 renal = system: A498 renal
HOP-62 NSCLC = system: HOP-62 NSCLC
M14 melanoma = system: M14 melanoma
NCI-H322M lung = system: NCI-H322M lung
OVCAR-8 ovarian = system: OVCAR-8 ovarian
HT29 colon = system: HT29 colon
MCF7 breast = system: MCF7 breast
SF-268 CNS = system: SF-268 CNS
OVCAR-3 ovarian = system: OVCAR-3 ovarian
RPMI-8226 leukemia = system: RPMI-8226 leukemia
SK-MEL-2 melanoma = system: SK-MEL-2 melanoma
MDA-MB-468 breast = system: MDA-MB-468 breast
T-47D breast = system: T-47D breast
HCT-116 colon = system: HCT-116 colon
SNB-19 CNS = system: SNB-19 CNS
HOP-92 NSCLC = system: HOP-92 NSCLC
SK-MEL-5 melanoma = system: SK-MEL-5 melanoma
HCC-2998 colon = system: HCC-2998 colon
MOLT-4 leukemia = system: MOLT-4 leukemia
786-0 renal = system: 786-0 renal
SN12C renal = system: SN12C renal
SW-620 colon = system: SW-620 colon

COc1cc(F)cc([C@@H](CO)NC(=O)[C@@H](C)N2Cc3ccc(-c4nc(NC5CCOCC5)ncc4Cl)cc3C2=O)c1
GI50 (UO-31 renal): 0.578 µM
TGI (UO-31 renal): 20.1 µM
GI50 (MALME-3M melanoma): < 0.01 µM
TGI (MALME-3M melanoma): < 0.01 µM
GI50 (SR leukemia): 0.499 µM
TGI (SR leukemia): 14.7 µM
GI50 (SK-MEL-28 melanoma): < 0.01 µM
TGI (SK-MEL-28 melanoma): < 0.01 µM
GI50 (NCI-H522 lung): 11.3 µM
TGI (NCI-H522 lung): 27.4 µM
GI50 (DU-145 prostate): 11.3 µM
TGI (DU-145 prostate): 38.7 µM
GI50 (KM12 colon): 0.0465 µM
TGI (KM12 colon): 16.4 µM
GI50 (CAKI-1 renal): 0.096 µM
TGI (CAKI-1 renal): 33.3 µM
GI50 (K-562 leukemia): 0.409 µM
TGI (K-562 leukemia): 19 µM
GI50 (TK-10 renal): 0.821 µM
TGI (TK-10 renal): 40.3 µM
GI50 (HL-60(TB) leukemia): < 0.01 µM
TGI (HL-60(TB) leukemia): 0.0429 µM
GI50 (NCI-H460 NSCLC): 1.12 µM
TGI (NCI-H460 NSCLC): 31.3 µM
GI50 (SF-295 CNS): 15.2 µM
TGI (SF-295 CNS): 43 µM
GI50 (PC-3 prostate): 18.3 µM
TGI (PC-3 prostate): 36.2 µM
GI50 (UACC-257 melanoma): < 0.01 µM
TGI (UACC-257 melanoma): 0.0209 µM
GI50 (COLO 205 colon): < 0.01 µM
TGI (COLO 205 colon): 0.0246 µM
GI50 (A549 NSCLC): 0.0457 µM
TGI (A549 NSCLC): 17.3 µM
GI50 (IGROV1 ovarian): 0.145 µM
TGI (IGROV1 ovarian): 12.6 µM
GI50 (NCI/ADR-RES ovarian): 14.7 µM
TGI (NCI/ADR-RES ovarian): 31.9 µM
GI50 (MDA-MB-435 melanoma): 0.0103 µM
TGI (MDA-MB-435 melanoma): 20.1 µM
GI50 (OVCAR-5 ovarian): 0.0102 µM
TGI (OVCAR-5 ovarian): > 100 µM
GI50 (HCT-15 colon): 14.4 µM
TGI (HCT-15 colon): 75.6 µM
GI50 (MDA-MB-231 breast): 0.0854 µM
TGI (MDA-MB-231 breast): 19.1 µM
GI50 (CCRF-CEM leukemia): 11.7 µM
TGI (CCRF-CEM leukemia): 24.7 µM
GI50 (SK-OV-3 ovarian): 6.75 µM
TGI (SK-OV-3 ovarian): 63.2 µM
GI50 (SF-539 CNS): 0.382 µM
TGI (SF-539 CNS): 15.6 µM
GI50 (UACC-62 melanoma): < 0.01 µM
TGI (UACC-62 melanoma): 0.0427 µM
GI50 (RXF 393 renal): 0.441 µM
TGI (RXF 393 renal): 16.9 µM
GI50 (BT-549 breast): 11.4 µM
TGI (BT-549 breast): 23.8 µM
GI50 (ACHN renal): 5.8 µM
TGI (ACHN renal): 60.8 µM
GI50 (NCI-H226 lung): 0.214 µM
TGI (NCI-H226 lung): 16.1 µM
GI50 (OVCAR-4 ovarian): 13.2 µM
TGI (OVCAR-4 ovarian): 39.3 µM
GI50 (LOX IMVI melanoma): 0.0134 µM
TGI (LOX IMVI melanoma): 0.0671 µM
GI50 (NCI-H23 lung): < 0.01 µM
TGI (NCI-H23 lung): 0.0221 µM
GI50 (U251 glioblastoma): 0.46 µM
TGI (U251 glioblastoma): 42.7 µM
GI50 (A498 renal): 10.4 µM
TGI (A498 renal): 36.1 µM
GI50 (HOP-62 NSCLC): 0.218 µM
TGI (HOP-62 NSCLC): 25.9 µM
GI50 (M14 melanoma): < 0.01 µM
TGI (M14 melanoma): 0.0138 µM
GI50 (NCI-H322M lung): 0.0722 µM
TGI (NCI-H322M lung): 25.8 µM
GI50 (OVCAR-8 ovarian): 12.4 µM
TGI (OVCAR-8 ovarian): 28.2 µM
GI50 (HT29 colon): < 0.01 µM
TGI (HT29 colon): 13.4 µM
GI50 (MCF7 breast): 16.5 µM
TGI (MCF7 breast): 31.9 µM
GI50 (SF-268 CNS): 25.5 µM
TGI (SF-268 CNS): 79.5 µM
GI50 (OVCAR-3 ovarian): 13.9 µM
TGI (OVCAR-3 ovarian): 33.3 µM
GI50 (RPMI-8226 leukemia): 0.224 µM
TGI (RPMI-8226 leukemia): 5.09 µM
GI50 (SK-MEL-2 melanoma): < 0.01 µM
TGI (SK-MEL-2 melanoma): 0.0312 µM
GI50 (MDA-MB-468 breast): 0.325 µM
TGI (MDA-MB-468 breast): 10 µM
GI50 (T-47D breast): 11.7 µM
TGI (T-47D breast): 24.1 µM
GI50 (HCT-116 colon): 0.0137 µM
TGI (HCT-116 colon): 0.201 µM
GI50 (SNB-19 CNS): 11 µM
TGI (SNB-19 CNS): > 100 µM
GI50 (HOP-92 NSCLC): 0.0249 µM
TGI (HOP-92 NSCLC): 0.162 µM
GI50 (SK-MEL-5 melanoma): 0.0181 µM
TGI (SK-MEL-5 melanoma): 12.1 µM
GI50 (HCC-2998 colon): < 0.01 µM
TGI (HCC-2998 colon): 0.0408 µM
GI50 (MOLT-4 leukemia): 7.8 µM
TGI (MOLT-4 leukemia): 20.2 µM
GI50 ([…]-0 renal): 11.3 µM
TGI (786-0 renal): 34.1 µM
GI50 (SN12C renal): 16.6 µM
TGI (SN12C renal): 85.4 µM
GI50 (SW-620 colon): 0.0132 µM
TGI (SW-620 colon): 19.3 µM
